Assay results from patent US20220073496A1, “NOVEL QUINOLINE DERIVATIVE INHIBITOR” (Nanjing Transthera Biosciences Co., Ltd., priority 2018, published 2022).
Read-outs that look alike come from different tables or passages of the source.

Key:
Rat PK evaluation = assay type: in vivo; settings: SD rats; for Vz_obs iv (apparent distribution volume) / bioavailability / AUC(0-t) / clearance / half-life: n = 3; for bioavailability / AUC(0-t) / clearance / half-life / Tmax: rat, plasma; for bioavailability: read-out: F % (absolute bioavailability); for clearance: read-out: Cl_obs iv (clearance rate) (converted); for Tmax: n = 3, median, read-out: Tmax po (time to peak plasma concentration)
Experimental: Assay 2: Rat PK Evaluation for the Compounds of the Present Invention
Animal Administration and Sample Collection:
The test compounds 14, 15, 16, 20, 29, 30, 31, 32, 33, 34, 36, 37, 47 and 48 were dissolved in 5% DMSO+20% (30% solutol)+75% saline to prepare the compound solutions. Each of the compound solutions was intragastrically administered to SD rats at a dose of 5.0 mg/kg. The time points of blood collection were: 15 minutes, 30 minutes, 1 hour, 2 hours, 4 hours, 6 hours, 8 hours, 24 hours, 30 hours, and 48 hours.
The test compounds 38, 39, 40 and 41 were dissolved in 5% NMP+5% Tween-80+90% saline to prepare the compound solutions. Each of the compound solutions was intragastrically administered to SD rats at a dose of 5.0 mg/kg. The time points of blood collection were: 15 minutes, 30 minutes, 1 hour, 2 hours. 4 hours, 6 hours, 8 hours, 24 hours, 30 hours, and 48 hours.
The test compounds 14, 15, 16, 20, 29, 30, 31, 32, 33, 34, 36, 37, 47 and 48 were dissolved in 5% DMSO+20% (30% solutol)+75% saline to prepare the compound solutions. Each of the compound solutions was administered by intravenous bolus injection to SD rats at a dose of 1 mg/kg. The time points of blood collection were: 5 minutes, 15 minutes, 30 minutes, 1 hour, 2 hours, 4 hours, 6 hours, 8 hours, 24 hours, and 48 hours.
The test compounds 38, 39, 40 and 41 were dissolved in 5% NMP+5% Tween-80+90% saline to prepare the compound solutions. Each of the compound solutions was administered by intravenous bolus injection to SD rats at a dose of 1 mg/kg. The time points of blood collection were: 5 minutes, 15 minutes, 30 minutes, 1 hour, 2 hours, 4 hours, 6 hours, 8 hours, 24 hours, and 48 hours.
The animal was fixed. The tail was heated in a water bath pot 10 minutes before each time point. About 100 μL of blood was collected through the tail vein. The blood was collected and placed in an anti-coagulation tube containing EDTA-K2. The blood sample was centrifuged at 8000 rpm for 6 minutes at 4° C. to obtain a plasma sample. The plasma was prepared within 30 minutes after the blood collection. The plasma was stored in a −80° C. refrigerator before testing.
The sample to be tested was taken out from the −80° C. refrigerator, naturally melted at room temperature and vortexed for 5 minutes. 20 μL of plasma sample was accurately pipetted into a 1.5 mL centrifuge tube. 200 μL of an internal standard working solution (a solution of tolbutamide in methanol) having a concentration of 100 ng/mL was added and mixed well. The mixture was vortexed for 5 minutes, and centrifuged at 12000 rpm for 5 minutes. 50 μL of the supernatant was accurately pipetted into a 96-well plate pre-filled with 150 μL/well of water. The plate was vortexed for 5 minutes and mixed well, and then the LC-MS/MS determination and analysis were performed.
The concentration of the test substance was output using Analyst 1.6.3 from AB Company. Parameters such as mean, standard deviation, and coefficient of variation were calculated with Microsoft Excel (direct outputs from Analyst 1.6.3 were not calculated), and the PK parameters were calculated using Pharsight Phoenix 6.1 software NCA (Tmax was the median).

H1299 cell pAxl = biological target: T1, H1299 cell pAxl (Homo sapiens, UniProt P30530); assay: Inhibitory activity on the cell pAxl (Western Blot); assay type: cell-based; settings: H1299 cells, compound 1.1, 3.3, 10, 30 nM, hGAS6 200 ng/mL
T1 construct: endogenous in cells; host or cells: H1299
T1 sequence (P30530 26-894): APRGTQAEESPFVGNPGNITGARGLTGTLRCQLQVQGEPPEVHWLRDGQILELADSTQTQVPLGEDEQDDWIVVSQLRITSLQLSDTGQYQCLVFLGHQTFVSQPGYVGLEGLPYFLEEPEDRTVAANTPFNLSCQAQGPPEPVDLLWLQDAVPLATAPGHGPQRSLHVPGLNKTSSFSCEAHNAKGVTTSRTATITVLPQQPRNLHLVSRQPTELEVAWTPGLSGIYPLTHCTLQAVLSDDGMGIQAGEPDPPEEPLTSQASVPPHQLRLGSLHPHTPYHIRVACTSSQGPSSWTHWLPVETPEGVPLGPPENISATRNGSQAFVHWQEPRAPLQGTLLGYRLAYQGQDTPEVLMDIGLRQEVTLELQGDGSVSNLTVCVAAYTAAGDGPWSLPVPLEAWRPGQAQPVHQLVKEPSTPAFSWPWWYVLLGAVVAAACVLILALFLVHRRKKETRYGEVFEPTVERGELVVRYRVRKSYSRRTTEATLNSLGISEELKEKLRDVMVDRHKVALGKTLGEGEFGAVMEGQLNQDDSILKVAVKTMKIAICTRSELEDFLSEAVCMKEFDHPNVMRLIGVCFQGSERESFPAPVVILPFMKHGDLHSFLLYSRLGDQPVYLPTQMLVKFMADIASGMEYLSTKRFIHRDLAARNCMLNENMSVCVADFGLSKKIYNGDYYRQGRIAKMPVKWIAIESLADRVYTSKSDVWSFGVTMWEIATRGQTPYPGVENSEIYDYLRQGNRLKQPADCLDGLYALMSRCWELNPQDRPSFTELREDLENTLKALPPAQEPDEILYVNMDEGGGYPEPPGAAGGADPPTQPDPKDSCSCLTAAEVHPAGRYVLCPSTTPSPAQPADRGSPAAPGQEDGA

[1] = IV 1 mg/kg, read-out: AUClast iv (area under the drug-time curve from 0 to 48 hours)
[2] = IV 1 mg/kg, read-out: tz1/2 iv (terminal elimination half-life) (converted)
[3] = PO 5 mg/kg, read-out: AUClast po (area under the drug-time curve from 0 to 48 hours)
[4] = PO 5 mg/kg, read-out: tz1/2 po (terminal elimination half-life) (converted)

SMILES	Vz_obs iv (apparent distribution volume) (Rat PK evaluation; IV 1 mg/kg) [L/kg]	bioavailability (Rat PK evaluation; IV 1 mg/kg, PO 5 mg/kg) [%]	AUC(0-t) (Rat PK evaluation; [1]) [ng·h/mL]	clearance (Rat PK evaluation; IV 1 mg/kg) [mL/min/kg]	half-life (Rat PK evaluation; [2]) [h]	Tmax (Rat PK evaluation; PO 5 mg/kg) [h]	AUC(0-t) (Rat PK evaluation; [3]) [ng·h/mL]	half-life (Rat PK evaluation; [4]) [h]	IC50 (H1299 cell pAxl) [nM]
COc1cc2nccc(Oc3ncc(NC(=O)c4cn(C(C)C)nc(-c5ccc(F)cc5)c4=O)cn3)c2cc1OC [Compound 40, N-(2-((6,7-dimethoxyquinolin-4-yl)oxy)pyrimidine-5-yl)-6-(4-fluorophenyl)-2-isopropyl-5-oxo-2,5-dihydropyridazine-4-carboxamide]	1.84	63.4	7270	2.33	9.18	4	23000	8.68	10
COc1cc2nccc(Oc3ccc(NC(=O)c4cn(C(C)C)nc(-c5ccc(F)cc5)c4=O)nc3)c2cc1OC [Compound 41, N-(5-((6,7-dimethoxyquinolin-4-yl)oxy)pyridin-2-yl)-6-(4-fluorophenyl)-2-isopropyl-5-oxo-2,5-dihydropyridazine-4-carboxamide]	6.81	103	2750	5.83	14.1	4	14400	13.7	< 10
COc1cc2nccc(Oc3ncc(NC(=O)c4nn(C5CC5)cc(-c5ccc(F)cc5)c4=O)cn3)c2cc1OC [Compound 37, 1-cyclopropyl-N-(2-((6,7-dimethoxyquinolin-4-yl)oxy)pyrimidine-5-yl)-5-para-fluorophenyl-4-oxo-1,4-dihydropyridazine-3-carboxamide]	0.12	78.7	69700	0.233	5.98	4	273000	7.73	< 1.1
COc1cc2nccc(Oc3ccc(NC(=O)c4nn(C(C)C)cc(-c5ccc(F)cc5)c4=O)cn3)c2cc1OC [Compound 29, N-(6-((6,7-dimethoxyquinolin-4-yl)oxy)pyridin-3-yl)-1-isopropyl-4-oxo-5-para-fluorophenyl-1,4-dihydropyridazine-3-carboxamide]	0.42	59.1	78600	0.6	13.7	4	246000	12.2	< 1.1
COc1cc2nccc(Oc3ccc(NC(=O)c4nn(C5CC5)cc(-c5ccc(F)cc5)c4=O)nc3)c2cc1OC [Compound 31]	0.14	27.7	224000	0.05	32.6	4	310000	19.2	< 1.1
COc1cc2nccc(Oc3ccc(NC(=O)c4cn(C(C)C)nc(-c5ccc(F)cc5)c4=O)cn3)c2cc1OC [Compound 38, N-(6-((6,7-dimethoxyquinolin-4-yl)oxy)pyridin-3-yl)-6-para-fluorophenyl-2-isopropyl-5-oxo-2,5-dihydropyridazine-4-carboxamide]	3.32	81.6	6000	2.5	15.2	4	25500	12.1	3.3
COc1cc2nccc(Oc3ccc(NC(=O)c4nn(C5CC5)cc(-c5ccc(F)cc5)c4=O)cn3)c2cc1OC [Compound 36]	0.095	57.5	167000	0.0967	11.6	4	463000	12.7	< 1.1
COc1cc2nccc(Oc3cnc(NC(=O)c4cn(C(C)C)cc(-c5ccc(F)cc5)c4=O)nc3)c2cc1OC [Compound 20, N-(5-((6,7-dimethoxyquinolin-4-y)oxy)pyrimidine-2-yl)-5-(4-fluorophenyl)-1-isopropyl-4-oxo-1,4-dihydropyridin-3-carboxamide]	0.18	53.3	29100	0.667	3.1	6	77900	5.4	< 1.1
COc1cc2nccc(Oc3cnc(NC(=O)c4cn(C(C)C)nc(-c5ccc(F)cc5)c4=O)nc3)c2cc1OC [Compound 39, N-(5-((6,7-dimethoxyquinolin-4-yl)oxy)pyrimidine-2-yl)-6-(4-fluorophenyl)-2-isopropyl-5-oxo-2,5-dihydropyridazine-4-carboxamide]	1.21	90.2	6920	2.5	5.89	2	32400	5.67	3.3
